Test results from patent publication US20070299072A1, “KV1.5 POTASSIUM CHANNEL INHIBITORS” (Wyeth, priority 2006, published 2007).

Legend:
Format in all cases: cell-based
Kv1.5 = biological target: T1, Kv1.5 (Homo sapiens, UniProt P22460); assay: Kv1.5 Patch Clamp EP (whole cell patch clamp; single point at 1 μM and IC50); conditions: for IC50: concentration response; for inhibition at 1 µM: single point at 1.0 μM, Kv1.5 stably over expressed in HEK or LTK- cells
T1 construct: expressed in transfected cells; host or cells: HEK or LTK- cells
T1 sequence (P22460 whole entry): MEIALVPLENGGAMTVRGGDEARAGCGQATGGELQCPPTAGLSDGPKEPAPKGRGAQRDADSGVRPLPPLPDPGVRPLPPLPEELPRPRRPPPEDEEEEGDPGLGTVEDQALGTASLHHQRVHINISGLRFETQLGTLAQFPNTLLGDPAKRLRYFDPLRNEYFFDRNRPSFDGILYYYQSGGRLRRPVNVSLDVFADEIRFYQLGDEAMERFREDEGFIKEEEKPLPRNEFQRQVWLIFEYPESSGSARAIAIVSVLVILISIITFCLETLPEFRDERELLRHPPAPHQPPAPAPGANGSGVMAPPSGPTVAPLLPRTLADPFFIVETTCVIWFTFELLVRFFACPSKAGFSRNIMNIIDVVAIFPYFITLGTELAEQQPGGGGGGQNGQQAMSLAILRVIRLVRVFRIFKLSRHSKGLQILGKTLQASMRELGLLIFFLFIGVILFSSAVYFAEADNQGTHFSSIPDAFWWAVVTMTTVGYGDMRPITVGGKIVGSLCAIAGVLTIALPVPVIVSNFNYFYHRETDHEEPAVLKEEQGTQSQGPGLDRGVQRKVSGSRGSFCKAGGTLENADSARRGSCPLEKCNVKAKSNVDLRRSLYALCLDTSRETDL
Procedure: The external solution is standard Tyrodes solution. […] Inhibition was measured at the end of the 1 second pulses and expressed relative to controls. Initial Kv1.5 inhibition is estimated by single point determinations done at 1 μM.

HERG = biological target: T2, HERG (Homo sapiens, UniProt Q12809); assay: HERG Patch Clamp EP (whole cell patch clamp, tail currents; single point at 10 μM and IC50); conditions: for IC50: concentration response; for inhibition at 10 µM: human, HEK cells stably overexpressing HERG, single point at 10 μM, HERG in HEK cells, read-out: HERG % Inhib. @ 10 μM
T2 construct: expressed in transfected cells; host or cells: HEK cells
T2 sequence (Q12809 whole entry): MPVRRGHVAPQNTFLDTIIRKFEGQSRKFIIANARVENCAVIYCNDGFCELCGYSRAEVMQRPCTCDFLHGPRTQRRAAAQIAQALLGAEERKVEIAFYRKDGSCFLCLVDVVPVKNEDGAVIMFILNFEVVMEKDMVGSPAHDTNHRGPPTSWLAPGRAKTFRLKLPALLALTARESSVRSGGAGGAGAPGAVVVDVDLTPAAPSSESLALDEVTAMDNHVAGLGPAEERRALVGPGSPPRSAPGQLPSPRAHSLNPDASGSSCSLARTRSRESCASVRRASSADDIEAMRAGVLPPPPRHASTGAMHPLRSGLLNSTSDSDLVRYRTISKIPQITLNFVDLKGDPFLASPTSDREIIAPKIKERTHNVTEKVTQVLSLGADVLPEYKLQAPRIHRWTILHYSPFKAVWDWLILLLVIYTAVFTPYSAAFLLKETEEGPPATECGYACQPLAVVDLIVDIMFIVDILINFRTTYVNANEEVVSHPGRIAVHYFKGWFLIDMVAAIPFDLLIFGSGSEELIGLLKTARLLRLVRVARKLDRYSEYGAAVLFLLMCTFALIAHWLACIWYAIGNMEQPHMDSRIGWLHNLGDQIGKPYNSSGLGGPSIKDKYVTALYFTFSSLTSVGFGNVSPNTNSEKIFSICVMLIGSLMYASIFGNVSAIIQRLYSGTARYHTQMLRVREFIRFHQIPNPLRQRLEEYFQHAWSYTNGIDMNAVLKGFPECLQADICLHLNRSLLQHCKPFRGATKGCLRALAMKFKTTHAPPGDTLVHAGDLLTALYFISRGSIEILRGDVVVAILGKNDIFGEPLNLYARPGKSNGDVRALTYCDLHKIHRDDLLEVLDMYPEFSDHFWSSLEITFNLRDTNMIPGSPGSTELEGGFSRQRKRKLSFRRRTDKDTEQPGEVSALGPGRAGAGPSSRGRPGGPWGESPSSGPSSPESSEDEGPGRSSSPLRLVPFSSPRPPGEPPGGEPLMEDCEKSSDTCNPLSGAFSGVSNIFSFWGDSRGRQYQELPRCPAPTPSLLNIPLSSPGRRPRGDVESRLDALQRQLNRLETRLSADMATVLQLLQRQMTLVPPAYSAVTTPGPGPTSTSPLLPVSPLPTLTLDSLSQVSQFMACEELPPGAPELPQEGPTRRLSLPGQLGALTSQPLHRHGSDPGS
Source text: The external solution is standard Tyrodes solution.

L-type calcium channels = assay: FLIPR L-type Calcium Channel Assay (calcium influx in HL-1 cells after KCl); conditions: read-out: L-type Ca2+ IC50
Procedure: HL-1 cells expressing endogenous L-type calcium channels are removed from culture flasks using trypsin, plated on fibronectin/gelatin-coated, clear-bottomed, black-walled 96-well microplates in Claycomb media (JRH Biosciences #51800) containing 10% fetal bovine serum, 4 mM L-glutamine, and 10 μM norepinephrine, and grown to confluency overnight. The next day, growth medium is aspirated from confluent cell monolayers and replaced with 100 μL per well Tyrode's solution (in mM: 130 NaCl, 4 KCl, 1.8 CaCl2, 1.0 MgCl2, 20 HEPES, 10 glucose, pH 7.35) and 50 μL per well FLIPR Calcium Assay kit, component A (#R-8033, Molecular Devices Corporation) and incubated for 60 min. in a 5% CO2 37° C. incubator. 50 μL per well test compounds are added to the plates and further incubated for 15 min. in a 5% CO2 37° C. incubator. All final solutions contain the anion exchange inhibitor, probenecid (2.5 mM). The 96-well plates are then placed in the center position of the FLIPR 1 (Fluorometric Imaging Plate Reader, Molecular Devices Corporation). Cell monolayers in each well are simultaneously illuminated at 488 nm with an Argon ion laser, and fluorescence emission is monitored using a 510-570 nm bandpass filter and a cooled CCD camera. To depolarize the plasma membrane and activate L-type calcium channels, 50 μL per well of 20 mM KCl (final concentration) are dispensed simultaneously to all 96 wells using the FLIPR's automatic 96-well pipettor. Fluorescence measurements are captured for 5 min. following KCl addition. Calcium influx, expressed as % control, is calculated for each concentration of test compound and concentration-response curves and IC50 values are generated using GraphPad Prism 4.0.

| Structure (SMILES) | IC50 (Kv1.5) [µM] | inhibition at 1 µM (Kv1.5) [%] | IC50 (L-type calcium channels) [µM] | IC50 (HERG) [µM] | inhibition at 10 µM (HERG) [%] |
| --- | --- | --- | --- | --- | --- |
| COc1ccc(CCN2C(=O)C3(CCN(C(=O)C4CC4)CC3)N(C)C2c2ccc(OC(F)F)cc2)cc1 (stereo not shown) [Compound 6, 8-Cyclopropylcarbonyl-2-(4-difluoromethoxyphenyl)-3-[2-(4-methoxyphenyl)-ethyl]-1-methyl-1,3,8-triazaspiro[4.5]decan-4-one] |  | 68 | 13 |  | 85 |
| COc1ccc(CCN2C(=O)C3(CCN(C(=O)N4CCCCC4)CC3)N(C)C2c2ccc(C3CC3)cc2)cc1 (stereo not shown) [Compound 9, 2-(4-Cyclopropylphenyl)-3-[2-(4-methoxyphenyl)ethyl]-1-methyl-8-(piperidine-1-carbonyl)-1,3,8-triaza-spiro[4.5]decan-4-one] |  | 96 | 6.2 |  | 60 |
| CCN(CC)c1ccc(C2N(CCc3ccc(OC)cc3)C(=O)C3(CCN(C(N)=O)CC3)N2C)cc1 (stereo not shown) [Compound 10, 2-[4-(Diethylamino)phenyl]-3-[2-(4-methoxyphenyl)ethyl]-1-methyl-4-oxo-1,3,8-triaza-spiro[4.5]decane-8-carboxylic acid amide] |  | 87 | 12 |  | 5 |
| COc1ccc(CCN2C(=O)C3(CCN(C(N)=O)CC3)N(C)C2c2ccc(C(C)(C)C)cc2)cc1 (stereo not shown) [Compound 12, 2-(4-tert-Butylphenyl)-3-[2-(4-methoxyphenyl)ethyl]-1-methyl-4-oxo-1,3,8-triaza-spiro[4.5]decane-8-carboxylic acid amide] | 0.611 | 70 | 8 |  | 40 |
| CN1C(c2ccc(C3CC3)cc2)N(CCc2ccc(OC(F)(F)F)cc2)C(=O)C12CCN(C(N)=O)CC2 (stereo not shown) [Compound 14, 2-(4-Cyclopropylphenyl)-3-[2-(4-trifluoromethoxyphenyl)ethyl]-1-methyl-4-oxo-1,3,8-triaza-spiro[4.5]decane-8-carboxylic acid amide] |  | 59 | 15 |  | 75 |
| COc1ccc(CCN2C(=O)C3(CCN(C(=O)NC4CCCC4)CC3)N(C)C2c2ccc(C3CC3)cc2)cc1 (stereo not shown) [Compound 20, 2-(4-Cyclopropylphenyl)-3-[2-(4-methoxyphenyl)ethyl]-1-methyl-4-oxo-1,3,8-triaza-spiro[4.5]decane-8-carboxylic acid cyclopentylamide] | 0.186 | 93 | 8 | 4 | 86 |
| COc1ccc(CCN2C(=O)C3(CCN(C(=O)N4CCN(C)CC4)CC3)N(C)C2c2ccc(C3CC3)cc2)cc1 (stereo not shown) [Compound 22, 2-(4-Cyclopropylphenyl)-3-[2-(4-methoxyphenyl)ethyl]-1-methyl-8-[(4-methylpiperazin-1-yl)carbonyl]-1,3,8-triaza-spiro[4.5]decan-4-one] |  | 51 | 18 |  | 58 |
| COc1ccc(CCN2C(=O)C3(CCN(C(=O)N4CCCC4)CC3)N(C)C2c2ccc(C3CC3)cc2)cc1 (stereo not shown) [Compound 23, 2-(4-Cyclopropylphenyl)-3-[2-(4-methoxyphenyl)ethyl]-1-methyl-8-(pyrrolidin-1-ylcarbonyl)-1,3,8-triaza-spiro[4.5]decan-4-one] | 0.181 | 96 | 6.6 | 6.2 | 77 |
| COc1ccc(CCN2C(=O)C3(CCN(C(=O)N4CCOCC4)CC3)N(C)C2c2ccc(C3CC3)cc2)cc1 (stereo not shown) [Compound 24, 2-(4-Cyclopropylphenyl)-3-[2-(4-methoxyphenyl)ethyl]-1-methyl-8-(morpholin-4-ylcarbonyl)-1,3,8-triaza-spiro[4.5]decan-4-one] |  | 82 | 13 |  | 27 |
| COc1ccc(CCN2C(=O)C3(CCN(C(=O)NNC(=O)OC(C)(C)C)CC3)N(C)C2c2ccc(C3CC3)cc2)cc1 (stereo not shown) [Compound 29, tert-Butyl 2-({2-(4-cyclopropylphenyl)-3-[2-(4-methoxyphenyl)ethyl]-1-methyl-4-oxo-1,3,8-triazaspiro[4.5]dec-8-yl}carbonyl)hydrazine carboxylate] |  | 83 | 8 |  | 31 |
| COc1ccc(CCN2C(=O)C3(CCN(C(N)=NC#N)CC3)N(C)C2c2ccc(OC)cc2)cc1 (stereo not shown) [Compound 30, N′-cyano-2-(4-methoxyphenyl)-3-[2-(4-methoxyphenyl)ethyl]-1-methyl-4-oxo-1,3,8-triazaspiro[4.5]decane-8-carboximidamide] | 0.166 | 93 | 21 | 6 | 91 |
| COc1ccc(CCN2C(=O)C3(CCN(C(N)=NC#N)CC3)N(C)C2c2ccc(C3CC3)cc2)cc1 (stereo not shown) [Compound 31, 8-(Cyano-1-carboxamidine)-2-(4-cyclopropylphenyl)-3-[2-(4-methoxyphenyl)-ethyl]-1-methyl-1,3,8-triaza-spiro[4.5]decan-4-one] |  | 75 | 26 |  | 25 |
| COc1ccc(CCN2C(=O)C3(CCN(S(C)(=O)=O)CC3)N(C)C2c2ccc(C3CC3)cc2)cc1 (stereo not shown) [Compound 32, 2-(4-cyclopropylphenyl)-8-methanesulfonyl-3-[2-(4-methoxy-phenyl)ethyl]-1-methyl-1,3,8-triaza-spiro[4.5]decan-4-one] |  | 90 | 13 |  | 57 |

Second part, led by results:

| IC50 (Kv1.5) [µM] | inhibition at 1 µM (Kv1.5) [%] | IC50 (L-type calcium channels) [µM] | Structure (SMILES) | IC50 (HERG) [µM] | inhibition at 10 µM (HERG) [%] |
| --- | --- | --- | --- | --- | --- |
| 0.514 | 84 | 36 | COc1ccc(CCN2C(=O)C3(CCN(C(C)=O)CC3)N(C)C2c2ccc(C3CC3)cc2)cc1 (stereo not shown) [Compound 5, 8-Acetyl-2-(4-cyclopropylphenyl)-3-[2-(4-methoxyphenyl)ethyl]-1-methyl-1,3,8-triaza-spiro[4.5]decan-4-one] | 31 | 8 |
| 0.579 | 87 | 9 | COc1ccc(CCN2C(=O)C3(CCN(C(N)=O)CC3)N(C)C2c2ccc(C3CC3)cc2)cc1 (stereo not shown) [Compound 7, 2-(4-Cyclopropylphenyl)-3-[2-(4-methoxyphenyl)ethyl]-1-methyl-4-oxo-1,3,8-triaza-spiro[4.5]decane-8-carboxylic acid amide] | 23.5 | 12 |
| 0.35 | 91 | 11 | CNC(=O)N1CCC2(CC1)C(=O)N(CCc1ccc(OC)cc1)C(c1ccc(C3CC3)cc1)N2C (stereo not shown) [Compound 8, 2-(4-Cyclopropylphenyl)-3-[2-(4-methoxyphenyl)ethyl]-1-methyl-4-oxo-1,3,8-triaza-spiro[4.5]decane-8-carboxylic acid methyl amide] |  | 25 |
| 0.319 | 92 | 13 | COc1ccc(CCN2C(=O)C3(CCN(C(=O)NC(C)C)CC3)N(C)C2c2ccc(C3CC3)cc2)cc1 (stereo not shown) [Compound 16, 2-(4-Cyclopropylphenyl)-3-[2-(4-methoxyphenyl)ethyl]-1-methyl-4-oxo-1,3,8-triaza-spiro[4.5]decane-8-carboxylic acid isopropylamide] |  | 48 |
|  | 97 | 11 | COc1ccc(CCN2C(=O)C3(CCN(C(=O)N4CCC4)CC3)N(C)C2c2ccc(C3CC3)cc2)cc1 (stereo not shown) [Compound 21, 2-(4-cyclopropylphenyl)-3-[2-(4-methoxyphenyl)ethyl]-1-methyl-8-(azetidin-1-ylcarbonyl)-1,3,8-triaza-spiro[4.5]decan-4-one] |  | 54 |
|  | 82 | 17 | CONC(=O)N1CCC2(CC1)C(=O)N(CCc1ccc(OC)cc1)C(c1ccc(C3CC3)cc1)N2C (stereo not shown) [Compound 25, 2-(4-cyclopropylphenyl)-N-methoxy-3-[2-(4-methoxyphenyl)ethyl]-1-methyl-4-oxo-1,3,8-triazaspiro[4.5]decane-8-carboxamide] |  | 23 |
|  | 65 | 24 | COc1ccc(CCN2C(=O)C3(CCN(C(=O)NO)CC3)N(C)C2c2ccc(C3CC3)cc2)cc1 (stereo not shown) [Compound 26, 2-(4-Cyclopropylphenyl)-N-hydroxy-3-[2-(4-methoxyphenyl)ethyl]-1-methyl-4-oxo-1,3,8-triazaspiro[4.5]decane-8-carboxamide] |  | 5 |
|  | 87 | 20 | CCONC(=O)N1CCC2(CC1)C(=O)N(CCc1ccc(OC)cc1)C(c1ccc(C3CC3)cc1)N2C (stereo not shown) [Compound 27, 2-(4-cyclopropylphenyl)-N-ethoxy-3-(4-methoxyphenethyl)-1-methyl-4-oxo-1,3,8-triazaspiro[4.5]decane-8-carboxamide] |  | 35 |
